Source: patent US20250171438A1 (Agios Pharmaceuticals, Inc., priority 2022, published 2025)
Blank lines part the entries; values can stand above or below the compound they belong to.

Target: T1, human PAH with the R408W mutation (Homo sapiens, UniProt P00439, R408W)
T1 construct: expressed in transfected cells
T1 sequence (P00439 1-452 R408W): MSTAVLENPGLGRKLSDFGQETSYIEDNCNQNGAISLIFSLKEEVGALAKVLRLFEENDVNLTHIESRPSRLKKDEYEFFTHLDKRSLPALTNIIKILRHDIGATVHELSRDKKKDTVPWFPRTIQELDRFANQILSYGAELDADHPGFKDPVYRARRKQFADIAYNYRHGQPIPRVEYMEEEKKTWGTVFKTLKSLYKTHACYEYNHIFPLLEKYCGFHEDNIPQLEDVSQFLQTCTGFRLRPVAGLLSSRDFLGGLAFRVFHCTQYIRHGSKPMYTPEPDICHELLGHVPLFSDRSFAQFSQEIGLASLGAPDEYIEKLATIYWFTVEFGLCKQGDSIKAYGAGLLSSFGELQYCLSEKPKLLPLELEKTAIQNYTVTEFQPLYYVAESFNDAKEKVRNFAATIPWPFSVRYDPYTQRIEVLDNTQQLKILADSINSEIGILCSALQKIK
Test: Cell Based Phenylalanine Flux Assay
Conditions: A375 cells expressing human R408W PAH; 24 hrs with compound; 13C-Tyrosine by LC-MS; average where tested multiple times; read-out: AC50

Compound: CC(C)(O)Cn1ncc(C(=O)N2CCc3[nH]cnc3C2c2nc3c(F)cccc3s2)c1C(F)F (stereo not drawn) [listing 1 of 2 here]
AC50: > 5 µM

Compound: O=C(c1ccn[nH]1)N1CCc2[nH]cnc2C1c1nc2ccccc2s1 (stereo not drawn) [listing 1 of 2 here]
AC50: > 5 µM

Compound: Cn1ncc(C(=O)N2CCc3[nH]cnc3C2c2nc3ccccc3s2)n1 (stereo not drawn) [listing 1 of 2 here]
AC50: > 5 µM

Compound: Cn1nc(CC#N)nc1C(=O)N1CCc2[nH]cnc2C1c1nc2ccccc2s1 (stereo not drawn)
AC50: > 5 µM

Compound: Cn1nc(C(C)(C)O)cc1C(=O)N1CCc2[nH]cnc2C1c1nc2c(F)cccc2s1 (stereo not drawn) [listing 1 of 2 here]
AC50: > 5 µM

Compound: Cn1nc(CC#N)nc1C(=O)N1CCc2[nH]cnc2C1c1nc2c(F)cccc2s1 (stereo not drawn) [listing 1 of 2 here]
AC50: > 5 µM

Compound: O=C(c1nnc(CCCN2CC(F)C2)o1)N1CCc2[nH]cnc2C1c1nc2ccccc2s1 (stereo not drawn) [listing 1 of 2 here]
AC50: > 5 µM

Compound: O=C(c1nnc(CCCN2CCOCC2)o1)N1CCc2[nH]cnc2C1c1nc2ccccc2s1 (stereo not drawn) [listing 1 of 2 here]
AC50: > 5 µM

Compound: O=C(c1nnc(CCC(F)(F)F)o1)N1CCc2[nH]cnc2C1c1nc2ccccc2s1 (stereo not drawn) [listing 1 of 2 here]
AC50: > 5 µM

Compound: O=C(c1cnn(CCO)c1Cl)N1CCc2[nH]cnc2C1c1nc2c(F)cccc2s1 (stereo not drawn) [listing 1 of 2 here]
AC50: > 5 µM

Compound: Cc1cc(C(=O)N2CCc3[nH]cnc3C2c2nc3c(F)cccc3s2)n(-c2ccc(F)cc2)n1 (stereo not drawn) [listing 1 of 2 here]
AC50: > 5 µM

Compound: O=C(c1ccn(-c2ccccn2)n1)N1CCc2[nH]cnc2C1c1nc2c(F)cccc2s1 (stereo not drawn) [listing 1 of 2 here]
AC50: > 5 µM

Compound: Cn1nc(COC(F)(F)F)cc1C(=O)N1CCc2[nH]cnc2C1c1nc2c(F)cccc2s1 (stereo not drawn) [listing 1 of 2 here]
AC50: > 5 µM

Compound: Cn1nc(-c2ccccn2)cc1C(=O)N1CCc2[nH]cnc2C1c1nc2c(F)cccc2s1 (stereo not drawn) [listing 1 of 2 here]
AC50: > 5 µM

Compound: Cn1nnc(C(=O)N2CCc3[nH]cnc3C2c2nc3c(F)cccc3s2)n1 (stereo not drawn) [listing 1 of 2 here]
AC50: > 5 µM

Compound: [2H]C([2H])([2H])OCc1cc(C(=O)N2CCc3[nH]cnc3C2c2nc3c(F)cccc3s2)n(C)n1 (stereo not drawn) [listing 1 of 2 here]
AC50: > 5 µM

Compound: Cn1nc(C#N)cc1C(=O)N1CCc2[nH]cnc2C1c1nc2c(F)cccc2s1 (stereo not drawn) [listing 1 of 2 here]
AC50: > 5 µM

Compound: CC(C)(O)Cn1cc(C(=O)N2CCc3[nH]cnc3C2c2nc3c(F)cccc3s2)cn1 (stereo not drawn)
AC50: 1 to 5 µM

Compound: CC(=O)Cn1cc(C(=O)N2CCc3[nH]cnc3C2c2nc3c(F)cccc3s2)cn1 (stereo not drawn)
AC50: 1 to 5 µM

Compound: CC(C)(O)Cn1ncc(C(=O)N2CCc3[nH]cnc3C2c2nc3c(F)cccc3s2)c1C(F)F (stereo not drawn) [listing 2 of 2 here]
AC50: 1 to 5 µM

Compound: CC(=O)Cn1ncc(C(=O)N2CCc3[nH]cnc3C2c2nc3c(F)cccc3s2)c1Cl (stereo not drawn)
AC50: 1 to 5 µM

Compound: Cn1cnc(C(=O)N2CCc3[nH]cnc3C2c2nc3ccccc3s2)n1 (stereo not drawn)
AC50: > 5 µM

Compound: O=C(c1cn[nH]c1)N1CCc2[nH]cnc2C1c1nc2ccccc2s1 (stereo not drawn)
AC50: 1 to 5 µM

Compound: O=C(c1ccn[nH]1)N1CCc2[nH]cnc2C1c1nc2ccccc2s1 (stereo not drawn) [listing 2 of 2 here]
AC50: 1 to 5 µM

Compound: Cn1ncc(C(=O)N2CCc3[nH]cnc3C2c2nc3ccccc3s2)n1 (stereo not drawn) [listing 2 of 2 here]
AC50: 1 to 5 µM

Compound: Cn1nnc(C(=O)N2CCc3[nH]cnc3C2c2nc3ccccc3s2)n1 (stereo not drawn)
AC50: 1 to 5 µM

Compound: Cn1nc(-c2ccc(Cl)cc2)cc1C(=O)N1CCc2[nH]cnc2C1c1nc2c(F)cccc2s1 (stereo not drawn)
AC50: 1 to 5 µM

Compound: O=C(c1cc(C(F)F)n[nH]1)N1CCc2[nH]cnc2C1c1nc2c(F)cccc2s1 (stereo not drawn)
AC50: 1 to 5 µM

Compound: Cn1nc(Br)nc1C(=O)N1CCc2[nH]cnc2C1c1nc2c(F)cccc2s1 (stereo not drawn)
AC50: 1 to 5 µM

Compound: Cn1nc(C(C)(C)O)nc1C(=O)N1CCc2[nH]cnc2C1c1nc2ccccc2s1 (stereo not drawn)
AC50: 1 to 5 µM

Compound: Cn1nc(CC#N)nc1C(=O)N1CCc2[nH]cnc2C1c1nc2c(F)cccc2s1 (stereo not drawn) [listing 2 of 2 here]
AC50: 1 to 5 µM

Compound: Cn1nc(C(C)(C)O)nc1C(=O)N1CCc2[nH]cnc2C1c1nc2c(F)cccc2s1 (stereo not drawn)
AC50: > 5 µM

Compound: Cn1nc(C(C)(C)O)cc1C(=O)N1CCc2[nH]cnc2C1c1nc2c(F)cccc2s1 (stereo not drawn) [listing 2 of 2 here]
AC50: 1 to 5 µM

Compound: O=C(c1nnc(CCCN2CC(F)C2)o1)N1CCc2[nH]cnc2C1c1nc2ccccc2s1 (stereo not drawn) [listing 2 of 2 here]
AC50: 1 to 5 µM

Compound: O=C(c1nnc(CCCN2CCOCC2)o1)N1CCc2[nH]cnc2C1c1nc2ccccc2s1 (stereo not drawn) [listing 2 of 2 here]
AC50: 1 to 5 µM

Compound: O=C(c1nnc(C2CC(F)(F)C2)o1)N1CCc2[nH]cnc2C1c1nc2ccccc2s1 (stereo not drawn)
AC50: 1 to 5 µM

Compound: O=C(c1nnc(CCC(F)(F)F)o1)N1CCc2[nH]cnc2C1c1nc2ccccc2s1 (stereo not drawn) [listing 2 of 2 here]
AC50: 1 to 5 µM

Compound: O=C(c1nnc(C2CNC2)o1)N1CCc2[nH]cnc2C1c1nc2ccccc2s1 (stereo not drawn)
AC50: > 5 µM

Compound: COCc1nnc(C(=O)N2CCc3[nH]cnc3C2c2nc3ccccc3s2)o1 (stereo not drawn)
AC50: 1 to 5 µM

Compound: NC(=O)Cn1ncc(C(=O)N2CCc3[nH]cnc3C2c2nc3c(F)cccc3s2)c1C(F)F (stereo not drawn)
AC50: 1 to 5 µM

Compound: O=C(c1cnn(CCO)c1Cl)N1CCc2[nH]cnc2C1c1nc2c(F)cccc2s1 (stereo not drawn) [listing 2 of 2 here]
AC50: 1 to 5 µM

Compound: CNC(=O)N1CC(C(=O)N2CCc3[nH]cnc3C2c2nc3ccccc3s2)C1 (stereo not drawn)
AC50: > 5 µM

Compound: O=C(C1CN(CC(F)(F)F)C1)N1CCc2[nH]cnc2C1c1nc2c(F)cccc2s1 (stereo not drawn)
AC50: 1 to 5 µM

Compound: Cc1cc(C(=O)N2CCc3[nH]cnc3C2c2nc3c(F)cccc3s2)n(-c2ccc(F)cc2)n1 (stereo not drawn) [listing 2 of 2 here]
AC50: 1 to 5 µM

Compound: O=C(c1ccn(-c2ccccn2)n1)N1CCc2[nH]cnc2C1c1nc2c(F)cccc2s1 (stereo not drawn) [listing 2 of 2 here]
AC50: 1 to 5 µM

Compound: O=C(C1CN(c2ccccn2)C1)N1CCc2[nH]cnc2C1c1nc2c(F)cccc2s1 (stereo not drawn)
AC50: 1 to 5 µM

Compound: Cn1nc(COC(F)(F)F)cc1C(=O)N1CCc2[nH]cnc2C1c1nc2c(F)cccc2s1 (stereo not drawn) [listing 2 of 2 here]
AC50: 1 to 5 µM

Compound: Cn1nc(-c2ccccn2)cc1C(=O)N1CCc2[nH]cnc2C1c1nc2c(F)cccc2s1 (stereo not drawn) [listing 2 of 2 here]
AC50: 1 to 5 µM

Compound: Cc1nc(C(C)(C)S(C)(=O)=O)oc1C(=O)N1CCc2[nH]cnc2C1c1nc2c(F)cccc2s1 (stereo not drawn)
AC50: 1 to 5 µM

Compound: Cn1nnc(C(=O)N2CCc3[nH]cnc3C2c2nc3c(F)cccc3s2)n1 (stereo not drawn) [listing 2 of 2 here]
AC50: 1 to 5 µM

Compound: [2H]C([2H])([2H])OCc1cc(C(=O)N2CCc3[nH]cnc3C2c2nc3c(F)cccc3s2)n(C)n1 (stereo not drawn) [listing 2 of 2 here]
AC50: 1 to 5 µM

Compound: O=C(c1nnc(-c2ccc(C(F)(F)F)cc2)o1)N1CCc2[nH]cnc2C1c1nc2c(F)cccc2s1 (stereo not drawn)
AC50: 1 to 5 µM

Compound: Cn1nc(C#N)cc1C(=O)N1CCc2[nH]cnc2C1c1nc2c(F)cccc2s1 (stereo not drawn) [listing 2 of 2 here]
AC50: 1 to 5 µM

Compound: CN(C)Cc1cc(C(=O)N2CCc3[nH]cnc3C2c2nc3c(F)cccc3s2)n(C)n1 (stereo not drawn)
AC50: > 5 µM

Compound: COC(=O)N1CC(C(=O)N2CCc3[nH]cnc3C2c2nc3c(F)cccc3s2)C1 (stereo not drawn)
AC50: 1 to 5 µM

The next lines start with the values.

AC50: > 5 µM
Compound: CC(C)(O)Cn1ncc(C(=O)N2CCc3[nH]cnc3C2c2nc3c(F)cccc3s2)c1Cl (stereo not drawn) [listing 1 of 2 here]

AC50: > 5 µM
Compound: Cn1ncc(C(=O)N2CCc3[nH]cnc3C2c2nc3c(F)cccc3s2)c1Cl (stereo not drawn) [listing 1 of 2 here]

AC50: > 5 µM
Compound: Cn1ncc(C(=O)N2CCc3[nH]cnc3C2c2nc3c(F)cccc3s2)c1C#N (stereo not drawn) [listing 1 of 2 here]

AC50: > 5 µM
Compound: Cn1ncc(C(=O)N2CCc3[nH]cnc3C2c2nc3c(F)cccc3s2)n1 (stereo not drawn) [listing 1 of 2 here]

AC50: > 5 µM
Compound: COCc1cc(C(=O)N2CCc3[nH]cnc3C2c2nc3c(F)cccc3s2)n(C)n1 (stereo not drawn) [listing 1 of 2 here]

AC50: > 5 µM
Compound: COCc1cc(C(=O)N2CCc3[nH]cnc3C2c2nc3c(F)cccc3s2)[nH]n1 (stereo not drawn) [listing 1 of 2 here]

AC50: > 5 µM
Compound: Cn1nc(N)cc1C(=O)N1CCc2[nH]cnc2C1c1nc2c(F)cccc2s1 (stereo not drawn) [listing 1 of 2 here]

AC50: > 5 µM
Compound: Cn1nc(C(N)=O)cc1C(=O)N1CCc2[nH]cnc2C1c1nc2c(F)cccc2s1 (stereo not drawn) [listing 1 of 2 here]

AC50: 1 to 5 µM
Compound: CC(C)(O)Cn1ncc(C(=O)N2CCc3[nH]cnc3C2c2nc3c(F)cccc3s2)c1Cl (stereo not drawn) [listing 2 of 2 here]

AC50: 1 to 5 µM
Compound: O=C(c1cc(Cl)n[nH]1)N1CCc2[nH]cnc2C1c1nc2c(F)cccc2s1 (stereo not drawn)

AC50: 1 to 5 µM
Compound: CC(C)(O)c1cc(C(=O)N2CCc3[nH]cnc3C2c2nc3c(F)cccc3s2)[nH]n1 (stereo not drawn)

AC50: 1 to 5 µM
Compound: Cn1ncc(C(=O)N2CCc3[nH]cnc3C2c2nc3c(F)cccc3s2)c1Br (stereo not drawn)

AC50: 1 to 5 µM
Compound: Cn1ncc(C(=O)N2CCc3[nH]cnc3C2c2nc3c(F)cccc3s2)c1Cl (stereo not drawn) [listing 2 of 2 here]

AC50: 1 to 5 µM
Compound: Cn1ncc(C(=O)N2CCc3[nH]cnc3C2c2nc3c(F)cccc3s2)c1C#N (stereo not drawn) [listing 2 of 2 here]

AC50: > 5 µM
Compound: Cn1cnc(C(=O)N2CCc3[nH]cnc3C2c2nc3c(F)cccc3s2)n1 (stereo not drawn)

AC50: 1 to 5 µM
Compound: Cn1ncc(C(=O)N2CCc3[nH]cnc3C2c2nc3c(F)cccc3s2)c1C(F)(F)F (stereo not drawn)

AC50: 1 to 5 µM
Compound: O=C(c1ccn[nH]1)N1CCc2[nH]cnc2C1c1nc2c(F)cccc2s1 (stereo not drawn)

AC50: 1 to 5 µM
Compound: COCc1ncc(C(=O)N2CCc3[nH]cnc3C2c2nc3c(F)cccc3s2)o1 (stereo not drawn)

AC50: 1 to 5 µM
Compound: Cn1ncc(C(=O)N2CCc3[nH]cnc3C2c2nc3c(F)cccc3s2)n1 (stereo not drawn) [listing 2 of 2 here]

AC50: 1 to 5 µM
Compound: COCc1cc(C(=O)N2CCc3[nH]cnc3C2c2nc3c(F)cccc3s2)n(C)n1 (stereo not drawn) [listing 2 of 2 here]

AC50: 1 to 5 µM
Compound: COCc1cc(C(=O)N2CCc3[nH]cnc3C2c2nc3c(F)cccc3s2)[nH]n1 (stereo not drawn) [listing 2 of 2 here]

AC50: 1 to 5 µM
Compound: Cn1nc(N)cc1C(=O)N1CCc2[nH]cnc2C1c1nc2c(F)cccc2s1 (stereo not drawn) [listing 2 of 2 here]

AC50: 1 to 5 µM
Compound: Cn1nc(C(N)=O)cc1C(=O)N1CCc2[nH]cnc2C1c1nc2c(F)cccc2s1 (stereo not drawn) [listing 2 of 2 here]

AC50: > 5 µM
Compound: O=C(c1cc(CO)n[nH]1)N1CCc2[nH]cnc2C1c1nc2c(F)cccc2s1 (stereo not drawn)

AC50: 1 to 5 µM
Compound: Cn1nc(CO)cc1C(=O)N1CCc2[nH]cnc2C1c1nc2c(F)cccc2s1 (stereo not drawn)

AC50: 1 to 5 µM
Compound: CN(C)Cc1ncc(C(=O)N2CCc3[nH]cnc3C2c2nc3ccccc3s2)o1 (stereo not drawn)
